Test results taken from article PMC7144940, “Principles of RNA and nucleotide discrimination by the RNA processing enzyme RppH” (Nucleic Acids Research, 2020).
“Also recorded” adds a separate entry of the source. Like-named read-outs stand apart in the source and are kept apart here.

Tests used:
Escherichia coli RppH [1] = target: T1, Escherichia coli RppH (Escherichia coli, UniProt P0A776); type: biochemical; set-up: 0.1 mM substrate and 1 μM full-length RppH in case of nucleotides; decahistidine (N, cleaved yes); SUMO (N, cleaved yes); made in house; host or cells: E. coli BL21(DE3); conditions: for initial reaction rate of hydrolysis by RppH: nucleotide substrate 0.1 mM, 1 μM full-length RppH, pH 7.5, 10 mM MgCl2, 37°C, linear regression, n = 2, error is SE
Method: (§1) RppH activity on pppAG and ppAG RNAs, NTPs, NDPs, and ppGpp was determined by kinetic analysis, as described in ref. ([6]). Each reaction mixture contained 0.1 mM substrate and 1 μM full-length RppH in case of nucleotides and 0.1 μM RppH in case of RNA, in a 50-μL solution containing 50 mM HEPES-NaOH, pH 7.5, 10 mM MgCl2 , 0.1% Triton X-100, at 37°C. Reactions were incubated for 0–20 min and quenched with 750 μl of 50 mM sodium acetate, pH 4.5. The quenched reaction samples were analyzed by anion-exchange chromatography on a 5 × 50 mm MonoQ column (GE Healthcare). The reaction products and remaining substrates were eluted with a 0–1.0 M NaCl gradient in 10 mM Tris-HCl, pH 7.5, detected at 260 nm, and the amount of each mono- or oligonucleotide was calculated by using the integration function in UNICORN software (GE Healthcare). The initial reaction rates were calculated based on the ratio between remaining substrate and reaction products using a linear fit model of GraphPad. Each assay was repeated at least twice.
Target sequence in this assay (P0A776 whole entry): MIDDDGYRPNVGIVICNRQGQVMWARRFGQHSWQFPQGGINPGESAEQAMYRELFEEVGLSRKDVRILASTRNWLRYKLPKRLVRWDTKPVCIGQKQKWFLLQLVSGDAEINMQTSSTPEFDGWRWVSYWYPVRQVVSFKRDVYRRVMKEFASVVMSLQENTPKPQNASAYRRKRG

Escherichia coli RppH [2] = target: T1, Escherichia coli RppH; type: biochemical; set-up: 0.1 mM substrate and 1 μM full-length RppH in case of nucleotides; decahistidine (N, cleaved yes); SUMO (N, cleaved yes); made in house; host or cells: E. coli BL21(DE3); conditions: for hydrolysis by RppH (TLC): 1 mM substrate, 5 μM RppH, 37°C, 1 h
Method: Reactions for thin layer chromatography (TLC) were performed with 1 mM nucleotide substrates and 5 μM of the full-length RppH, in a 10-μl solution containing 10 mM MgCl2 and 50 mM buffer with different pH. Buffers were: MES-NaOH, pH 6.0; Na-cacodylate-HCl, pH 6.5; MOPS-NaOH, pH 7.0; HEPES-NaOH, pH 7.5; Tris-HCl, pH 8.0, 8.5 and 9.0. Reactions were incubated at 37°C for 1 h and quenched with 5 μl of 150 mM ethylenediaminetetraacetic acid (EDTA). Samples were analyzed on PEI-cellulose plates (F-254, Selecto Scientific) in 0.3 M potassium phosphate buffer, pH 7.5, for adenosine triphosphate (ATP), adenosine diphosphate (ADP), GTP, GDP, pppAG (RNA), ppGpp and pppGpp, and pH 3.3 for CTP and CDP, UTP and UDP. RNAs were visualized by UV254 shadowing. The equimolar amount of wild-type E. coli DapF ([8]) was added to the reactions for testing RppH activity stimulation at pH 7.5. Inhibition of RppH activity was conducted using NaF (Sigma-Aldrich) at 1–10 mM. For TLC experiments, original colored images were converted to black-and-white images, and the levels of brightness were adjusted to enhance the contrast and better visualize reaction products.
Target sequence in this assay (P0A776 whole entry): as above

Escherichia coli RppH [3] = target: T1, Escherichia coli RppH; experiment: Metal dependence of RppH reactivity (TLC); type: biochemical; set-up: RppHd (Δ161-176); Nterm-Ser0-Met1; decahistidine (N, cleaved yes); SUMO (N, cleaved yes); made in house; host or cells: E. coli BL21(DE3); conditions: 5 mM substrate, 5 μM RppHd
Method: Reactions were performed with 5 mM GTP and 5 μM RppHd, in a 20-μL solution containing 10 mM divalent cation salt (MgCl2, MnCl2, NiCl2, or CaCl2) and 50 mM buffer with different pH (HEPES-Na, pH 7.5; Tris-HCl, pH 8.0, 8.5, 9.0). Reactions were incubated at 37 °C for 1 h and quenched with 10 μL 150 mM EDTA. Samples were analyzed on PEI-cellulose plates in 0.3 M potassium phosphate buffer, pH 7.5, at room temperature. RNAs were visualized by UV254 shadowing.
Target sequence in this assay (P0A776 1-160): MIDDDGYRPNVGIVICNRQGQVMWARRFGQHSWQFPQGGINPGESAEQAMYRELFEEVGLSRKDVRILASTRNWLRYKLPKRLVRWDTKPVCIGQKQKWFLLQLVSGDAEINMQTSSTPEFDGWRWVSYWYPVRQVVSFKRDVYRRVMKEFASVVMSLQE

Escherichia coli RppH [4] = target: T1, Escherichia coli RppH; experiment: Competition experiments: inhibition of RNA hydrolysis by nucleotides; type: biochemical; set-up: 0.1 mM substrate and 1 μM full-length RppH in case of nucleotides; decahistidine (N, cleaved yes); SUMO (N, cleaved yes); made in house; host or cells: E. coli BL21(DE3)
Method: as §1
Target sequence in this assay (P0A776 whole entry): as the sequence (P0A776 whole entry) above
Competition experiments were conducted using the same protocol as cleavage assays with the 0.1 mM substrate RNA concentration, the nucleotide concentration ranging between 0.1-5.0 mM, and 10 min incubation. The initial reaction rates were calculated based on the ratio between reaction products and remaining substrate using a linear fit model of GraphPad software. Because of peak overlap, inhibition of GTP hydrolysis was determined solely based on quantification of the reaction products. IC50 values were determined using an IC50 model of GraphPad.

[5] = target: T2, DapFm (E. coli DapF with Y268A and R36A mutations) (Escherichia coli, UniProt P0A6K1 1-274, Y268A | R36A); experiment: crystal structure; RppHt-DapFm complex formed by mixing DapFm and RppHt at a molar ratio of 1:1.2 (20 mM Tris-HCl pH 8.0, 500 mM NaCl, 1 mM DTT), purified on Superdex 200; crystals from 30% PEG400, 0.1 M CHES pH 9.2, 18°C; soaked with GTP, GDP or pppGpp with MgCl2 and NaF; conditions: both partners purified
T2 construct: extra serine left at the N-terminus of all proteins by the ULP1 cleavage of the His10-SUMO tags; DapF (diaminopimelate epimerase), Escherichia coli, mutated variant of the full-length protein with Y268A and R36A; source: E. coli BL21(DE3), purified (HisTrap FF, tag cleavage by ULP1, Superdex 200); not shown: decahistidine, N-terminal, cleaved; SUMO, N-terminal, cleaved
T2 sequence: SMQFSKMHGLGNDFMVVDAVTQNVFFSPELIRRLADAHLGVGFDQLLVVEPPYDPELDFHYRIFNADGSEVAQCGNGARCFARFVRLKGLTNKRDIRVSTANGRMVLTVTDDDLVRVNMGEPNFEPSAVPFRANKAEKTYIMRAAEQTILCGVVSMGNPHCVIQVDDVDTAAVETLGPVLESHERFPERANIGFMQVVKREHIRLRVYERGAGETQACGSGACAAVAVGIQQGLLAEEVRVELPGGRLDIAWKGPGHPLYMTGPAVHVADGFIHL

[6] = longer incubation, pH 7.5, 1 μM RppH

Molecule: Nc1ncnc2c1ncn2[C@@H]1O[C@H](COP(=O)(O)OP(=O)(O)OP(=O)(O)O)[C@@H](O)[C@H]1O [ATP, adenosine triphosphate]
- undigested substrate remaining at plateau (Escherichia coli RppH [1]; [6]): ~70%
- initial reaction rate of hydrolysis by RppH (Escherichia coli RppH [1]): 4.2 ± 0.24 µM/min
- hydrolysis by RppH (TLC) (Escherichia coli RppH [2]; pH 8.5 and 9.0): all

Molecule: Nc1ccn([C@@H]2O[C@H](COP(=O)(O)OP(=O)(O)O)[C@@H](O)[C@H]2O)c(=O)n1 [CDP]
- hydrolysis by RppH (TLC) (Escherichia coli RppH [2]; pH 8.0): almost all

Molecule: Nc1nc2c(ncn2[C@@H]2O[C@H](COP(=O)(O)OP(=O)(O)OP(=O)(O)O)[C@@H](O)[C@H]2O)c(=O)[nH]1 [GTP, guanosine triphosphate]
- undigested substrate remaining at plateau (Escherichia coli RppH [1]; [6]): ~70%
- initial reaction rate of hydrolysis by RppH (Escherichia coli RppH [1]): 3.1 ± 0.13 µM/min
- hydrolysis by RppH (TLC) (Escherichia coli RppH [2]; pH 8.5 and 9.0): majority
- hydrolysis by RppH in the presence of Mg2+ (Escherichia coli RppH [3]; 10 mM MgCl2, pH 7.5-9.0, 1 h): support hydrolysis most; also recorded: most efficiently
- hydrolysis by RppH in the presence of Mn2+ (Escherichia coli RppH [3]; 10 mM MnCl2, pH 7.5-9.0, 1 h): very low efficiency; also recorded: some activity
- hydrolysis by RppH in the presence of Ni2+ or Ca2+ (Escherichia coli RppH [3]; 10 mM NiCl2 or CaCl2, pH 7.5-9.0, 1 h): do not support hydrolysis; also recorded: no activity
- IC50 (Escherichia coli RppH [4]): ~4.1 mM
- IC50 (Escherichia coli RppH [4]; IC50, inhibition of RppH reactivity with pppAG RNA, 0.1 mM pppAG RNA, nucleotide 0.1-5.0 mM, 10 mM Mg2+, pH 7.5, 10 min, n = 2, mean ± SE): 1.58 mM
- IC50 (Escherichia coli RppH [4]; IC50, range over pppAG and ppAG RNA substrates, pppAG and ppAG RNA): 1.6 to 4.1 mM
- IC50 (Escherichia coli RppH [4]; concentration to achieve 2-fold inhibition of the reaction of RppH with ppAG, ppAG RNA): ~4.1 mM
- IC50 (Escherichia coli RppH [4]; concentration to achieve 2-fold inhibition of the reaction of RppH with pppAG, pppAG RNA): ~1.6 mM

Molecule: Nc1nc2c(ncn2[C@@H]2O[C@H](COP(=O)(O)OP(=O)(O)O)[C@@H](OP(=O)(O)OP(=O)(O)O)[C@H]2O)c(=O)[nH]1 [ppGpp]
- initial reaction rate of hydrolysis by RppH (Escherichia coli RppH [1]): 1.20 ± 0.07 µM/min
- times less reactive than GDP (Escherichia coli RppH [1]; ratio of initial rates, pH 7.5): ~2.8
- hydrolysis by RppH (TLC) (Escherichia coli RppH [2]; pH 7.0): slow hydrolysis
- hydrolysis by RppH (TLC) (Escherichia coli RppH [2]; pH 7.5): About half
- hydrolysis by RppH (TLC) (Escherichia coli RppH [2]; pH 8.0): most

Molecule: O=c1ccn([C@@H]2O[C@H](COP(=O)(O)OP(=O)(O)O)[C@@H](O)[C@H]2O)c(=O)[nH]1 [UDP]
- hydrolysis by RppH (TLC) (Escherichia coli RppH [2]; pH 8.0): almost all

Molecule: Nc1nc2c(ncn2[C@@H]2O[C@H](COP(=O)(O)OP(=O)(O)OP(=O)(O)O)[C@@H](OP(=O)(O)OP(=O)(O)O)[C@H]2O)c(=O)[nH]1 [pppGpp]
- initial reaction rate of hydrolysis by RppH (Escherichia coli RppH [1]): 1.30 ± 0.10 µM/min
- times less reactive than GTP (Escherichia coli RppH [1]; ratio of initial rates, pH 7.5): ~2.4
- hydrolysis by RppH (TLC) (Escherichia coli RppH [2]; pH 7.5): very slow hydrolysis
- hydrolysis by RppH (TLC) (Escherichia coli RppH [2]; pH 8.0): moderate hydrolysis

Molecule: Nc1nc2c(ncn2[C@@H]2O[C@H](COP(=O)(O)OP(=O)(O)O)[C@@H](O)[C@H]2O)c(=O)[nH]1 [GDP]
- conversion of substrate, without approaching a plateau (Escherichia coli RppH [1]; [6]): ~50%
- initial reaction rate of hydrolysis by RppH (Escherichia coli RppH [1]): 3.4 ± 0.07 µM/min
- hydrolysis by RppH (TLC) (Escherichia coli RppH [2]; pH 8.0): almost all
- IC50 (Escherichia coli RppH [4]; 0.1 mM ppAG RNA, nucleotide 0.1-5.0 mM, 10 mM Mg2+, pH 7.5, 10 min, n = 2, mean ± SE, GTP value estimated from a smooth curve, read-out: IC50, inhibition of RppH reactivity with ppAG RNA): ~0.059 mM
- IC50 (Escherichia coli RppH [4]; 0.1 mM pppAG RNA, nucleotide 0.1-5.0 mM, 10 mM Mg2+, pH 7.5, 10 min, n = 2, mean ± SE, read-out: IC50, inhibition of RppH reactivity with pppAG RNA): ~0.032 mM

Molecule: O=c1ccn([C@@H]2O[C@H](CO[P@@](=O)(O)O[P@@](=O)(O)OP(=O)(O)O)[C@@H](O)[C@H]2O)c(=O)[nH]1 (stereo in doubt) [UTP, uridine triphosphate]
- hydrolysis by RppH (TLC) (Escherichia coli RppH [2]; pH 8.5 and 9.0): majority

Molecule: F [fluoride]
- effect on E. coli RppH activity (TLC) (Escherichia coli RppH [2]; NaF 1-10 mM, GTP and GDP at pH 8.0, pppGpp and ppGpp at pH 7.5): Inhibition

Molecule: Nc1ncnc2c1ncn2[C@@H]1O[C@H](COP(=O)(O)OP(=O)(O)O)[C@@H](O)[C@H]1O [ADP, adenosine diphosphate]
- hydrolysis by RppH (TLC) (Escherichia coli RppH [2]; pH 8.0): all

Molecule: Nc1ccn([C@@H]2O[C@H](COP(=O)(O)OP(=O)(O)OP(=O)(O)O)[C@@H](O)[C@H]2O)c(=O)n1 [CTP, cytidine triphosphate]
- hydrolysis by RppH (TLC) (Escherichia coli RppH [2]; pH 8.5 and 9.0): majority

B1: RppHt (E. coli RppH, Δ161-176 and Q159A/E160A) (enzyme, Escherichia coli)
chain: SMIDDDGYRPNVGIVICNRQGQVMWARRFGQHSWQFPQGGINPGESAEQAMYRELFEEVGLSRKDVRILASTRNWLRYKLPKRLVRWDTKPVCIGQKQKWFLLQLVSGDAEINMQTSSTPEFDGWRWVSYWYPVRQVVSFKRDVYRRVMKEFASVVMSLAA
notes: extra serine (Ser0) left at the N-terminus by the ULP1 cleavage of the His10-SUMO tags; RNA pyrophosphohydrolase RppH, Escherichia coli, C-terminally truncated variant Δ161-176 (Met1 to residue 160) with Q159A/E160A; printed as Nterm-Ser0-Met1…Ala159-Ala160-Cterm; source: E. coli BL21(DE3), purified (HisTrap FF, tag cleavage by ULP1, HiTrap SP, Superdex 75); not shown: decahistidine, N-terminal, …
- binding result [5]: binds
